Legend:
[1] = test system: prostacyclin (PGI2) release; details: cited from earlier work; for release of prostacyclin: animal models
gastric mucosa = experiment: ASA- and WRS-induced gastric lesions in non-diabetic and streptozocin-diabetic rats; type: in vivo; details: for rise of gastric blood flow (GBF): H2-gas clearance
Method: In this study, streptozocin (70 mg/kg injected intraperitoneally) was used to induce diabetes mellitus and non-diabetic and diabetic rats were pretreated 30 min prior to exposure to aspirin (ASA; 150 mg/kg in 0.1 N HCl i.g.) or 3.5 h of water immersion and restraint stress (WRS) with 1) vehicle (saline) or 2) MNA (2.5-50 mg/kg i.g.). The area and number of gastric lesions was determined by planimetry, gastric blood flow (GBF) was examined by H2-gas clearance technique, and mieloperoxidase (MPO) activity, activity of superoxide dismutase (SOD) and the malonyldialdehyde (MDA) concentration as an index of lipid peroxidation were determined in gastric mucosa using ELISA. The gene expression IL-1β and TNF-α in the gastric mucosa and their plasma levels were evaluated by RT-PCR and ELISA, respectively. […] This experiment is also described in an abstract published for Digestive Disease Week 2006 (May 20-25, 2006, Los Angeles, Calif.; http://www.medscape.com/viewprogram/5452).

[2] = ASA 150 mg/kg in 0.1 N HCl i.g.

For 1-methyl-3-acetylpyridinium salt, the release of prostacyclin [1] is given as “ability to induce the release of prostacyclin”.
For `C[n+]1cccc(C(=O)NCO)c1` [1-methyl-N′-(hydroxymethyl)nicotinamide], the release of prostacyclin [1] is given as “ability to induce the release of prostacyclin”.
In the case of `C[n+]1cccc(C(N)=O)c1` [1-methylnicotinamide chloride], the release of prostacyclin [1] is listed as “ability to induce the release of prostacyclin”.
For `CC(=O)Oc1ccccc1C(=O)O` [ASA, aspirin], the gastric lesions (gastric mucosa; [2]) was “typical gastric lesions”, the “reduction of GBF from basal” value (gastric mucosa; [2]) was 35% and the “increase of MPO activity” value (gastric mucosa; ASA 150 mg/kg in 0.1 N HCl i.g., gastric mucosa) was 2-3 fold. The “mucosal SOD activity” value (gastric mucosa; ASA-exposed animals without or with diabetes) was “significantly decreased”, the “MDA activity (lipid peroxidation)” value (gastric mucosa; ASA-exposed animals without or with diabetes, gastric mucosa) was “significantly increased” and the “plasma levels of TNF-α and IL-1” value (gastric mucosa; ASA-exposed, ELISA) was “marked increase”. The “mRNAs for TNF-α and IL-1” value (gastric mucosa; ASA-exposed, gastric mucosa, RT-PCR) was “overexpression”.
In the case of `CNC(=O)c1cccnc1` [MNA, N-methylnicotinamide], the “decrease of mucosal SOD activity and increase of MDA” value (gastric mucosa; ASA- and WRS-exposed animals without or with diabetes) is reported as “markedly attenuated”, the WRS-induced gastric erosions (gastric mucosa; MNA 2.5-50 mg/kg i.g. 30 min before 3.5 h WRS, diabetic and non-diabetic rats) is reported as “dose-dependently attenuated” and the ASA-induced gastric erosions (gastric mucosa; MNA 2.5-50 mg/kg i.g. 30 min before ASA 150 mg/kg i.g., diabetic and non-diabetic rats) is reported as “dose-dependently attenuated”. The “IL-1β and TNF-α” value (gastric mucosa; gastric mucosa expression (RT-PCR) and plasma levels (ELISA)) was “downregulation”, the “rise of gastric blood flow (GBF)” value (gastric mucosa; injured gastric mucosa) was ~33% and the “rise of gastric blood flow (GBF)” value (gastric mucosa; intact gastric mucosa) was “about 22%”. The “secretion of PGI2” value ([1]; thrombolytic assay) was “stimulate the secretion of PGI2”.

From US20070259861A1, “Combination therapy with non-selective COX inhibitors to prevent COX-related gastric injuries” (Pharmena North America Inc., priority 2006, published 2007)
